Measurements taken from the NIST ThermoML archive (doi:10.1021/je0500375).
Numbers after ± are expanded uncertainties.

Assay: activity coefficient (dimensionless); of the first substance listed, at infinite dilution; xn = mol fraction of the nth substance listed
Conditions: 101.33 kPa, Liquid, Chromatography, x1 = 0

| SMILES | activity coefficient (298.15 K) | activity coefficient (313.15 K) | activity coefficient (328.15 K) |
| --- | --- | --- | --- |
| c1ccccc1 [benzene] + CCCCCCCCOS(=O)(=O)[O-].CCCCn1cc[n+](C)c1 | 1.42 ± 0.09 | 1.44 ± 0.09 | 1.45 ± 0.1 |
| C1CCCCCC1 [cycloheptane] + CCCCCCCCOS(=O)(=O)[O-].CCCCn1cc[n+](C)c1 | 5.43 ± 0.37 | 5.52 ± 0.38 | 5.68 ± 0.39 |
| C1CCCCC1 [cyclohexane] + CCCCCCCCOS(=O)(=O)[O-].CCCCn1cc[n+](C)c1 | 4.92 ± 0.34 | 5.02 ± 0.34 | 5.17 ± 0.35 |
| C1CCCC1 [cyclopentane] + CCCCCCCCOS(=O)(=O)[O-].CCCCn1cc[n+](C)c1 | 4.09 ± 0.28 | 4.24 ± 0.29 | 4.39 ± 0.3 |
| CO [methanol] + CCCCCCCCOS(=O)(=O)[O-].CCCCn1cc[n+](C)c1 | 0.386 ± 0.033 | 0.369 ± 0.033 | 0.36 ± 0.033 |
| ClC(Cl)(Cl)Cl [tetrachloromethane] + CCCCCCCCOS(=O)(=O)[O-].CCCCn1cc[n+](C)c1 | 1.65 ± 0.11 | 1.74 ± 0.12 | 1.85 ± 0.12 |
| Cc1ccccc1 [toluene] + CCCCCCCCOS(=O)(=O)[O-].CCCCn1cc[n+](C)c1 | 1.98 ± 0.13 | 2.02 ± 0.14 | 2.08 ± 0.14 |

Other lines, results leading:

| activity coefficient (298.15 K) | activity coefficient (313.15 K) | activity coefficient (328.15 K) | SMILES |
| --- | --- | --- | --- |
| 2.66 ± 0.18 | 2.85 ± 0.19 | 3.08 ± 0.21 | C#CCCCCC [1-heptyne] + CCCCCCCCOS(=O)(=O)[O-].CCCCn1cc[n+](C)c1 |
| 2.25 ± 0.15 | 2.38 ± 0.16 | 2.56 ± 0.17 | C#CCCCC [1-hexyne] + CCCCCCCCOS(=O)(=O)[O-].CCCCn1cc[n+](C)c1 |
| 3.25 ± 0.22 | 3.42 ± 0.23 | 3.65 ± 0.25 | C#CCCCCCC [1-octyne] + CCCCCCCCOS(=O)(=O)[O-].CCCCn1cc[n+](C)c1 |
| 8.27 ± 0.56 | 8.58 ± 0.59 | 9 ± 0.61 | CCCCCCC [heptane] + CCCCCCCCOS(=O)(=O)[O-].CCCCn1cc[n+](C)c1 |
| 5.43 ± 0.37 | 5.76 ± 0.39 | 6.13 ± 0.42 | C=CCCCC [hex-1-ene] + CCCCCCCCOS(=O)(=O)[O-].CCCCn1cc[n+](C)c1 |
| 7.21 ± 0.49 | 7.59 ± 0.52 | 7.98 ± 0.54 | CCCCCC [hexane] + CCCCCCCCOS(=O)(=O)[O-].CCCCn1cc[n+](C)c1 |
| 7.38 ± 0.5 | 7.53 ± 0.51 | 7.88 ± 0.54 | C=CCCCCCC [oct-1-ene] + CCCCCCCCOS(=O)(=O)[O-].CCCCn1cc[n+](C)c1 |
| 9.63 ± 0.66 | 9.96 ± 0.68 | 10.3 ± 0.7 | CCCCCCCC [octane] + CCCCCCCCOS(=O)(=O)[O-].CCCCn1cc[n+](C)c1 |
| 6.63 ± 0.45 | 7.14 ± 0.49 |  | CCCCC [pentane] + CCCCCCCCOS(=O)(=O)[O-].CCCCn1cc[n+](C)c1 |
